From article PMC7004151, “Synthesis and Structure‐Activity Relationships of N‐(4‐Benzamidino)‐Oxazolidinones: Potent and Selective Inhibitors of Kallikrein‐Related Peptidase 6” (Chemmedchem, 2019)
Values after ≈ are worked out from the molar mass of the structure shown.

How the values were obtained:
Human trypsin = molecular target: T1, Human trypsin (Homo sapiens, UniProt P07477); assay: Trypsin enzyme inhibition assay; assay type: biochemical; conditions: read-out: Trypsin pIC50 (converted)
T1 construct: purchased Polymun Scientific
Protocol: Human thrombin was purchased from Biopur. Human trypsin was purchased from Polymun Scientific. Human Factor Xa was purchased from Enzo Life Sciences. […] Fluorescence intensity was then read at ex/em 485/535 following incubation for 1 h at room temperature (thrombin and factor Xa) or 20 min (trypsin).

Thermodynamic solubility = assay type: physicochemical; conditions: thermodynamic from solid, Milli-Q water, 37 °C
Protocol: Thermodynamic solubility: Test compound (3 mg) is accurately weighed into a Micronics tube. Extra tubes for each control compound, Warfarin (high solubility control) and Cinnarizine (low solubility control) were also accurately weighed. To each tube is added 1 mL of Milli‐Q water. All samples are vortexed for 20 s and placed in a bench top incubator shaker set at 1300 rpm at 37 °C for 5 h. After the incubation, samples are centrifuged at 10,000 rpm for 3 min. 100 μL aliquots of the supernatant in duplicate were placed in a 96‐well plate. All samples, calibration standards and QC samples are analyzed using a validated HPLC method on the Dionex Ultramate 3000 HPLC system. The concentration determined from the supernatant was then reported as the solubility of each compound in μg/mL.

[1] = Kinetic aqueous solubility (laser nephelometry); assay type: physicochemical; conditions: Milli-Q water with […] DMSO, kinetic from dmso stock, 2.5 % DMSO
Protocol: Kinetic aqueous solubility: The aqueous solubility of the test compounds was measured using laser Nephelometry. Compounds were subjected to serial dilution from 10 mM to 0.5 mM in DMSO. An aliquot was then mixed with Milli‐Q water to obtain an aqueous dilution plate with a final concentration range of 250–12 μM, with a final DMSO concentration of 2.5 %. Triplicate aliquots were transferred to a flat bottomed polystyrene plate which was immediately read on the NEPHELOstar (BMG Lab Technologies). The amount of laser scatter caused by insoluble particulates (relative nephelometry units, RNU) was plotted against compound concentration using a segmental regression fit, with the point of inflection being quoted as the compounds aqueous solubility (μM).

Human thrombin = molecular target: T2, Human thrombin (Homo sapiens, UniProt P00734); assay: Thrombin enzyme inhibition assay; assay type: biochemical; conditions: read-out: Thrombin pIC50 (converted)
T2 construct: Human thrombin was purchased from Biopur; purchased Biopur
Protocol: Human thrombin was purchased from Biopur. Human trypsin was purchased from Polymun Scientific. Human Factor Xa was purchased from Enzo Life Sciences. Thrombin (20 nM), trypsin (0.000015 %) or Factor Xa (10 nM) were assayed in a similar manner to the KLKs but were incubated with compound for 20 min at room temperature in assay buffer (50 mM Tris HCl, pH 7.6, 100 mM NaCl, 1 mg/ml CHAPS, 0.05 % bovine serum albumin (BSA), 1 mM dithiothreitol (DTT)) before the addition of 5 μM, 2.5 μM or 1.5 μM Rhodamine 110 substrate (Cambridge bioscience ltd) respectively. Fluorescence intensity was then read at ex/em 485/535 following incubation for 1 h at room temperature (thrombin and factor Xa) or 20 min (trypsin).

HCT116 cells = assay: HCT116 cell growth and viability; assay type: cell-based; conditions: at the tested concentrations (data not shown)
Text: We have previously shown that knockdown of KLK6 reduces migration and invasion of HCT116 cells in vitro.13 In order to test whether this effect could be recapitulated with small molecule KLK6 inhibitors, we measured the ability of 32 to reduce invasion of HCT116 cells. […] HCT116 cell growth and viability was not altered upon treatment with compounds 9 and 32 at the tested concentrations (data not shown).

KLK8 = molecular target: T3, KLK8 (Homo sapiens, UniProt O60259); assay: KLK8 enzyme inhibition assay; assay type: biochemical; conditions: read-out: KLK8 pIC50 (converted)
T3 construct: purchased 2B scientific
T3 sequence (O60259 33-260): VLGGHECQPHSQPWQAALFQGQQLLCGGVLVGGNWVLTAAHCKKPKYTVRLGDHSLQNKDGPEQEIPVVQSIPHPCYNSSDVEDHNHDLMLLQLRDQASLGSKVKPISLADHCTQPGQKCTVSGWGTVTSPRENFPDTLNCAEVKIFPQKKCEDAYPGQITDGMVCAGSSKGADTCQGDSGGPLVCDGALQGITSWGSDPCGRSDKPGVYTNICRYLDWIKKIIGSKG
Protocol: Enzyme inhibition assays: All chemicals were purchased from Sigma Aldrich (Gillingham, UK) unless otherwise stated. All experiments were conducted in 384 well black, low volume microplates (Greiner 784076) with a final volume of 20 μL and compounds were dispensed into assay plates using an ECHO 550 acoustic dispenser (Labcyte). KLK6 (5 nM) (prepared as in ref. 21) was incubated with test compounds for 30 min at room temperature in assay buffer (50 mM Tris, pH 7.5, 150 mM NaCl, 1 mM EDTA, 0.05 % tween 20, 0.1 % bovine serum albumin (BSA), 1 mM dithiothreitol (DTT)) before the reaction was started by addition of 20 μM Boc‐Phe‐Ser‐Arg‐AMC substrate (Bachem). Fluorescence intensity was read at ex/em 355/460 following incubation for 2 h in the dark at room temperature.
Assays using KLK7 and KLK8 (2B scientific) were conducted in the same manner as for KLK6 with the following exceptions. Both KLK7 and KLK8 required activation before assaying. KLK7 was combined with an equal volume of 20 μg/ml thermolysin (R&D systems) in activation buffer (50 mM Tris, pH 7.5, 10 mM CaCl2, 150 mM NaCl and 0.05 % Brij‐L23) and incubated at 37 °C for 2 h, the reaction was stopped with the addition of 100 mM EDTA in stop solution (50 mM Tris, 150 mM NaCl, pH 8.5). KLK8 was combined with an equal volume of 0.4 mU/mL lysyl endopeptidase (Alpha laboratories) in activation buffer (50 mM Tris, pH 8.0) and incubated at 37 °C for 30 min. Activated KLK7 (40 nM) and KLK8 (25 nM) were assayed with 40 μM Mca‐RPKPVE‐Nval‐WRK(Dnp)‐NH2 fluorogenic MMP substrate (R&D systems) and 25 μM Boc‐V‐P‐R‐AMC substrate (R&D systems), respectively.

[2] = Microsomal intrinsic clearance, mouse liver microsomes; assay type: in vitro ADME
Protocol: (§1) Immediately, at time zero, then at 3, 6, 9, 15 and 30 min an aliquot (50 μL) of the incubation mixture was removed and mixed with acetonitrile (100 μL) to stop the reaction. Internal standard was added to all samples, the samples centrifuged to sediment precipitated protein and the plates then sealed prior to UPLC‐MS/MS analysis using a Quattro Premier XE (Waters Corporation, USA). XLfit (IDBS, UK) was used to calculate the exponential decay and consequently the rate constant (k) from the ratio of peak area of test compound to internal standard at each timepoint. The rate of intrinsic clearance (CLint) of each test compound was then calculated using the following calculation: CLint (mL/min/g liver)=k×V×Microsomal protein yield. Where V (mL/mg protein) is the incubation volume/mg protein added and microsomal protein yield is taken as 52.5 mg protein/g liver. Verapamil (0.5 μM) was used as a positive control to confirm acceptable assay performance.

[3] = Microsomal intrinsic clearance, human microsomes; assay type: in vitro ADME
Protocol: as §1

In the case of `CC[C@H](NC(=O)[C@H]1CN(c2ccc(C(=N)N)cc2)C(=O)O1)c1cccc2ccccc12` [Compound 32, (5R)‐3‐(4‐carbamimidoylphenyl)‐N‐((S)‐1‐(naphthalen‐1‐yl)propyl)‐2‐oxooxazolidine‐5‐carboxamide], the IC50 (Human trypsin) is reported as 63.1 nM, the solubility thermodynamic at 5 h (Thermodynamic solubility) is reported as 2300 µM (≈ 958 µg/mL) and the solubility kinetic [1] is reported as > 250 µM. For the same compound, the IC50 (Human thrombin) was > 20000 nM, the “HCT116 cell growth and viability” value (HCT116 cells) was “not altered” and the IC50 (KLK8) was 200 nM. For the same compound, the “Mouse CLint” value [2] was 2.4 mL/min/g and the “Human CLint” value [3] was 3.1 mL/min/g.
